Results from patent publication US20100261694A1 (priority 2009, published 2010).
Read-outs that look alike come from different tables or passages of the source.

What was measured:
[1] = system: Physcomitrella patens gametophore cells; format: cell-based; conditions: for Tunicamycin induced cell death: moss, co-treatment 100 μM chaperone with 10 μg/ml tunicamycin, 72h
[2] = system: Triticum aestivum leaf segments; format: cell-based; conditions: for Tunicamycin induced cell death: wheat, co-treatment 100 μM chaperone with 10 μg/ml tunicamycin, 72h
F. graminearum [3] = format: in vivo, Fusarium graminearum; conditions: 100 μM chaperone; for Proliferation of F. graminearum on host tissue (GFP-tagged fungal cells, PCR): moss tissues; for Cell death markers (chlorosis, TUNEL-positive nuclei, Evans Blue staining, ROS induction) by the fungal pathogen: moss
F. graminearum [4] = format: in vivo, Fusarium graminearum; conditions: 100 μM chaperone; for Proliferation of F. graminearum on host tissue (GFP-tagged fungal cells, PCR): wheat tissues; for Cell death markers (chlorosis, TUNEL-positive nuclei, Evans Blue staining, ROS induction) by the fungal pathogen: wheat
Fusarium graminearum = format: in vivo; conditions: 100 μM chaperone; 10 days postinoculation
F. graminearum [5] = format: cell-based, Fusarium graminearum; conditions: 100 μM; rich solid medium, no host

Compound | Tunicamycin induced cell death [1] | Tunicamycin induced cell death [2] | Proliferation of F. graminearum on host tissue (GFP-tagged fungal cells, PCR) (F. graminearum [3]) | Cell death markers (chlorosis, TUNEL-positive nuclei, Evans Blue staining, ROS induction) by the fungal pathogen (F. graminearum [3]) | Proliferation of F. graminearum on host tissue (GFP-tagged fungal cells, PCR) (F. graminearum [4]) | Cell death markers (chlorosis, TUNEL-positive nuclei, Evans Blue staining, ROS induction) by the fungal pathogen (F. graminearum [4]) | Fungal growth on inoculated wheat seeds (Fusarium graminearum) | Fungal growth and reproduction on solid growth medium (F. graminearum [5]) | Cell death (Evans Blue staining) compared to untreated control [1] | Cell death (Evans Blue staining) compared to untreated control [2]
O=C(O)CCCc1ccccc1 [PBA, 4-phenylbutyric acid] | attenuated | attenuated | significantly suppress | attenuated | significantly suppress | attenuated | suppression of fungal growth | did not affect fungal growth and reproduction |  | 
C[C@H](CCC(=O)NCCS(=O)(=O)O)[C@H]1CC[C@H]2[C@@H]3[C@@H](O)C[C@@H]4C[C@H](O)CC[C@]4(C)[C@H]3CC[C@]12C [TUDCA, tauroursodeoxycholic acid] | attenuated | attenuated | significantly suppress | attenuated | significantly suppress | attenuated | suppression of fungal growth | did not affect fungal growth and reproduction |  | 
Tunicamycin |  |  |  |  |  |  |  |  | more cell death | more cell death
